Test system: KRAS PDC multicell spheroid viability
Experiment: Anticancer human tumor 825966-067-R-J1-PDC patient-derived colon carcinoma cell line growth inhibition [KRAS2]
Conditions: for IC50: curve of first compound; for viability, T/C: stronger effect = lower value
Outline: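 Combination screen of spheroid viability in tumor-cell co-cultures with endothelial (HUVEC) and mesenchymal stem cell stroma. Each agent was tested in half-log dilutions, topping at clinical Cmax or at 10 microM without a known Cmax.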

[1] = second compound 0.1 µM, first compound 0.01 µM
[2] = second compound 0.1 µM, first compound 0.0316 µM
[3] = second compound 0.316 µM, first compound 0.01 µM
[4] = second compound 0.316 µM, first compound 0.0316 µM
[5] = second compound 1 µM, first compound 0.01 µM
[6] = second compound 1 µM, first compound 0.0316 µM
[7] = second compound 3.16 µM, first compound 0.01 µM
[8] = second compound 3.16 µM, first compound 0.0316 µM
[9] = second compound 10 µM, first compound 0.01 µM
[10] = second compound 10 µM, first compound 0.0316 µM
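Further: spheroids exposed to compounds for 7 days.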
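Wherever viability, T/C is given: 100% = DMSO vehicle control viability.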

Compound: CC(=O)Nc1cccc(-n2c(=O)n(C3CC3)c(=O)c3c(Nc4ccc(I)cc4F)n(C)c(=O)c(C)c32)c1 + CNCc1ccccc1-c1csc(C(C)Nc2nc(C)nc3cc(OC)c(OC)cc23)c1
- IC50 (second compound 0.1 µM): 23.9 nM
- IC50 (second compound 0.316 µM): 27.5 nM
- IC50 (second compound 1 µM): 17.1 nM
- IC50 (second compound 3.16 µM): < 0.1 nM
- IC50 (second compound 10 µM): < 0.1 nM
- viability, T/C (second compound 0.1 µM, first compound 0.0001 µM): 89.5%
- viability, T/C (second compound 0.1 µM, first compound 0.000316 µM): 107%
- viability, T/C (second compound 0.1 µM, first compound 0.001 µM): 108%
- viability, T/C (second compound 0.1 µM, first compound 0.00316 µM): 107%
- viability, T/C [1]: 92.9%
- viability, T/C [2]: 35.7%
- viability, T/C (second compound 0.316 µM, first compound 0.0001 µM): 88.3%
- viability, T/C (second compound 0.316 µM, first compound 0.000316 µM): 97.9%
- viability, T/C (second compound 0.316 µM, first compound 0.001 µM): 105%
- viability, T/C (second compound 0.316 µM, first compound 0.00316 µM): 108%
- viability, T/C [3]: 106%
- viability, T/C [4]: 42.9%
- viability, T/C (second compound 1 µM, first compound 0.0001 µM): 96.1%
- viability, T/C (second compound 1 µM, first compound 0.000316 µM): 98.2%
- viability, T/C (second compound 1 µM, first compound 0.001 µM): 112%
- viability, T/C (second compound 1 µM, first compound 0.00316 µM): 92.2%
- viability, T/C [5]: 78.5%
- viability, T/C [6]: 18.1%
- viability, T/C (second compound 3.16 µM, first compound 0.0001 µM): 28.4%
- viability, T/C (second compound 3.16 µM, first compound 0.000316 µM): 51.9%
- viability, T/C (second compound 3.16 µM, first compound 0.001 µM): 16.4%
- viability, T/C (second compound 3.16 µM, first compound 0.00316 µM): 0.36%
- viability, T/C [7]: 0.15%
- viability, T/C [8]: 0.26%
- viability, T/C (second compound 10 µM, first compound 0.0001 µM): 0.16%
- viability, T/C (second compound 10 µM, first compound 0.000316 µM): 0.14%
- viability, T/C (second compound 10 µM, first compound 0.001 µM): 0.13%
- viability, T/C (second compound 10 µM, first compound 0.00316 µM): 0.11%
- viability, T/C [9]: 0.12%
- viability, T/C [10]: 0.17%

Compound: CC(=O)OC12COC1CC(O)C1(C)C(=O)C(O)C3=C(C)C(OC(=O)C(O)C(NC(=O)OC(C)(C)C)c4ccccc4)CC(O)(C(OC(=O)c4ccccc4)C21)C3(C)C (stereo not given) + CNCc1ccccc1-c1csc(C(C)Nc2nc(C)nc3cc(OC)c(OC)cc23)c1
- IC50 (second compound 0.1 µM): < 10 nM
- IC50 (second compound 0.316 µM): < 10 nM
- IC50 (second compound 1 µM): < 10 nM
- IC50 (second compound 3.16 µM): < 10 nM
- IC50 (second compound 10 µM): < 10 nM
- viability, T/C [1]: 21.7%
- viability, T/C [2]: 14.4%
- viability, T/C (second compound 0.1 µM, first compound 0.1 µM): 17.6%
- viability, T/C (second compound 0.1 µM, first compound 0.316 µM): 15.7%
- viability, T/C (second compound 0.1 µM, first compound 1 µM): 18.1%
- viability, T/C (second compound 0.1 µM, first compound 3.16 µM): 23.4%
- viability, T/C [3]: 17.2%
- viability, T/C [4]: 10.2%
- viability, T/C (second compound 0.316 µM, first compound 0.1 µM): 11.7%
- viability, T/C (second compound 0.316 µM, first compound 0.316 µM): 11.5%
- viability, T/C (second compound 0.316 µM, first compound 1 µM): 14.3%
- viability, T/C (second compound 0.316 µM, first compound 3.16 µM): 18.6%
- viability, T/C [5]: 12.6%
- viability, T/C [6]: 17.5%
- viability, T/C (second compound 1 µM, first compound 0.1 µM): 11.6%
- viability, T/C (second compound 1 µM, first compound 0.316 µM): 13%
- viability, T/C (second compound 1 µM, first compound 1 µM): 15.5%
- viability, T/C (second compound 1 µM, first compound 3.16 µM): 16.2%
- viability, T/C [7]: 0.14%
- viability, T/C [8]: 15.2%
- viability, T/C (second compound 3.16 µM, first compound 0.1 µM): 1.18%
- viability, T/C (second compound 3.16 µM, first compound 0.316 µM): 0.07%
- viability, T/C (second compound 3.16 µM, first compound 1 µM): 0.57%
- viability, T/C (second compound 3.16 µM, first compound 3.16 µM): 24.8%
- viability, T/C [9]: 2.23%
- viability, T/C [10]: 1.24%
- viability, T/C (second compound 10 µM, first compound 0.1 µM): 0.96%
- viability, T/C (second compound 10 µM, first compound 0.316 µM): 0.12%
- viability, T/C (second compound 10 µM, first compound 1 µM): 0.12%
- viability, T/C (second compound 10 µM, first compound 3.16 µM): 0.18%
